# Reference: article PMC3401165, “Regulation of the Cyanobacterial CO2-Concentrating Mechanism Involves Internal Sensing of NADP^+ and α-Ketogutarate Levels by Transcription Factor CcmR” (PLoS ONE, 2012)
# Key:
# CmpR = target: T1, CmpR (Synechocystis sp. PCC 6803, UniProt Q55459); assay: SPR difference curves, CmpR binding to immobilised operator DNA; details: 1.5 µM CmpR; ligand 10, 100, 500 µM; cmpA promoter DNA; effector (co-activator)
# T1 construct: heterologously expressed in E. coli by essentially the same approach as His-tagged CcmR
# T1 sequence (Q55459 1-304): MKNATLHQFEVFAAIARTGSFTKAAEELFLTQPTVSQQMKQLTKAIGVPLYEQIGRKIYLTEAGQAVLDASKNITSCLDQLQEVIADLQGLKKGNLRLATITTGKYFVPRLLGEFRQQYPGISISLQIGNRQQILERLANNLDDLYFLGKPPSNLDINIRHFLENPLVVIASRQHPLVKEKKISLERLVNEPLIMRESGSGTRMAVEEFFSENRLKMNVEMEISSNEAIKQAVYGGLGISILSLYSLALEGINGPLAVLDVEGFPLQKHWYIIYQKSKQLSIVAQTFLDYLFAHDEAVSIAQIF
# CcmR = target: T2, CcmR (Synechocystis sp. PCC 6803, UniProt P73862); assay: SPR difference curves, CcmR binding to immobilised operator DNA; details: 1.5 µM CcmR; ligand 10, 100, 500 µM; pndhF3 DNA; 10 mM Pipes pH 7.4, 300 mM NaCl; effector (co-repressor)
# T2 construct: gene rbcR; recombinant N-terminally His-tagged, heterologously expressed
# T2 sequence (P73862 1-316): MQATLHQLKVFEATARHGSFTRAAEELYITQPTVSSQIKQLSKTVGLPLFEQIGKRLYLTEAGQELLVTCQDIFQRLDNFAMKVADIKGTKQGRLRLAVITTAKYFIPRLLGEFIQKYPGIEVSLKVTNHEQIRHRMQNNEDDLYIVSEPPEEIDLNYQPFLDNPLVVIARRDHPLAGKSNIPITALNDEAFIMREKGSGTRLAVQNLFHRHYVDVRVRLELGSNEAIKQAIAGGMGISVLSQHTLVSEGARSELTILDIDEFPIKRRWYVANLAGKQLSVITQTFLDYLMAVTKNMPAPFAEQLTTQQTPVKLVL
# [1] = tested on: T3, CcmR (Synechocystis sp. PCC 6803), ORF:206cd751; assay: SPR; details: SPR: 10 mM Pipes pH 7.4, 300 mM NaCl, 0.02% Tween-20, 25 uL/min, temperature not stated; EMSA: room temperature 20 min, 6% native PAGE (50 mM Tris pH 8.5 …)
# T3 sequence: T2 sequence (P73862 1-316)
Compound,"SPR difference curves, CmpR binding to immobilised operator DNA (CmpR)","SPR difference curves, CcmR binding to immobilised operator DNA (CcmR)",binding [1]
O=C(O)COP(=O)(O)O [2-phosphoglycolate],the presence of 2-PG and RuBP increased binding,,
NC(=O)c1ccc[n+]([C@@H]2O[C@H](COP(=O)(O)OP(=O)(O)OC[C@H]3O[C@@H](n4cnc5c(N)ncnc54)[C@H](OP(=O)(O)O)[C@@H]3O)[C@@H](O)[C@H]2O)c1 [NADP^+],,CcmR only showed modified binding only in the presence of NADP^+ and α-KG,
"O=C(COP(=O)(O)O)[C@H](O)[C@H](O)COP(=O)(O)O [ribulose-1,5-bisphosphate]",the presence of 2-PG and RuBP increased binding,,
O=C(O)CCC(=O)C(=O)O [α-KG],,CcmR only showed modified binding only in the presence of NADP^+ and α-KG,
AGTCAAGCGACAATGGTATAACCTAGATGCATAGAAAGAGTGTTATTTGTTACACCATATCATAGGGGAAATAAAATTCCAGATCAACAACCATTTGCTTAAGTGAATGATAAGTCTGGGTAATTGGAGGAAGAGGCAGGCTA (double strand) [pndhF3-2],,,binds
GCTCCCCGGACTAAGCTTGTCAAAATCATTGGCTTTATTCTATCATTGGTTATCTAACAACAATCCCAGGTCTATGAAAGTGAGTGTAATAGCCATAGGTCTATTTTAGTTATTGACTTCAGCACATCCTAGACCCAAG (double strand) [pccmR (SPR)],,,binds
